# Columns and labels:
# [1] = Serum levels of phorate, its metabolites and PAM in the poisoned patient (LC-MS); format: in vivo, human; conditions: for concentration at 1 day / concentration at 4 h / concentration at 3 day / concentration at 5 day / concentration at 7 day / concentration at 10 day / concentration at 12 day / concentration at 14 day / concentration at 16 day / concentration at 18 day: human, in vivo; for change of serum level while HP was stopped: seventh-10th day, family rejected HP
# Experimental: LC-MS was used to detect atropine,PAM,phorate and its metabolites. Ultra-high-pressure liquid chromatography-tandem mass spectrometry on a Sciex Triple TOFTM 5600+ mass spectrometer was used for toxic metabolites terminology screening. Ultra-high-pressure liquid chromatography-tandem mass spectrometry on a Sciextriplequad5500 mass spectrometer was used to detect target analytes quantitatively. Liquid chromatographic separations were performed with a Kinetex C18 column (2.1*50 mm,2.6 μm) from Phenomenex (Torrance, California, United States).Data were processed using the Xcalibur software (version2.0.7) from ThermoFisher.
# [2] = target: cholinesterase; conditions: ref Kovarova et al., 2013, cited from earlier work; for IC50: read-out: cholinesterase inhibition IC50; for times more toxic than phorate: relative to phorate, from IC50
# [3] = 24 h after ingestion; cited from earlier work
# [4] = liposolubility; cited from earlier work
# [5] = system: AChE; design: method as in Moyer et al., 2018b; conditions: within 48 h; ref Moyer et al., 2018b; cited from earlier work
# [6] = target: T1, cholinesterase (Homo sapiens, UniProt P06276); test: Serum cholinesterase level of the patient during phorate poisoning; format: in vivo; conditions: for serum cholinesterase activity: patient
# T1 construct: from tissue; host or cells: serum of the patient
# Experimental: Cholinesterase levels were measured using petrochemistry products, Ortho Medical Equipment Trade (China) Co., Ltd. slides, and the Medical Device of the PRC Registration Certificate NO.: 20212402803. Dry tablets (rate method) and compound calibrator for cholinesterase were determined by cholinesterase on a vitros5600 automatic biochemical immunoanalyzer (VITROS Chemistry Products, Calibrator kit 6). The reportable range of measurement was 200–12,500 U/L.
# [7] = patient, day 1, before HP, about 4 h after ingestion of 60% phorate emulsion
# T1 sequence (P06276 29-602): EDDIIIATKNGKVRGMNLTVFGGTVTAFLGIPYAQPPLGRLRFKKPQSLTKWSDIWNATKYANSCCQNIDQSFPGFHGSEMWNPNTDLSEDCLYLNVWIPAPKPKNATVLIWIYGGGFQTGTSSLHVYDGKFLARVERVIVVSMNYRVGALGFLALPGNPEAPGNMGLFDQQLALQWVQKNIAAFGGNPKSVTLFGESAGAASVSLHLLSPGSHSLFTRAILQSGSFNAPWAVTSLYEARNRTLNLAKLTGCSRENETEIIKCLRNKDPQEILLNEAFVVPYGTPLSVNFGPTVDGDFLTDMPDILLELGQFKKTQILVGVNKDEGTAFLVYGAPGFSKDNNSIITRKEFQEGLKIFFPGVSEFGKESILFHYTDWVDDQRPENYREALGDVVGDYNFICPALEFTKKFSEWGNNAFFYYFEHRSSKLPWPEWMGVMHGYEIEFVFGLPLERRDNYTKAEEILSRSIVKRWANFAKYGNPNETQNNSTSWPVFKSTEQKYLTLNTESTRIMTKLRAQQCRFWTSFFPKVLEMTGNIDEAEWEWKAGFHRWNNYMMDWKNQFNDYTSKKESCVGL
compound,measurement,setting,value
"C[n+]1ccccc1/C=N/O [PAM, pralidoxime chloride, reference compound]",concentration of PAM,"[1]; sixth day, after 0.5 g per hour for 5 days",significantly increased
CCOP(=S)(OCC)SCS(=O)(=O)CC [phorate sulfone],IC50,[2],40 µM
same,times more toxic than phorate,[2],about 80 times
same,concentration at 1 day,"[1]; patient, day 1, after HP",1310 ng/mL
same,concentration at 4 h,[1]; [7],1920 ng/mL
same,concentration at 3 day,"[1]; patient, day 3",191 ng/mL
same,concentration at 5 day,"[1]; patient, day 5",68.9 ng/mL
same,concentration at 7 day,"[1]; patient, day 7 (HP suspended)",30.7 ng/mL
same,concentration at 10 day,"[1]; patient, day 10 (HP suspended)",31 ng/mL
same,concentration at 12 day,"[1]; patient, day 12",14.8 ng/mL
same,concentration at 14 day,"[1]; patient, day 14",18.2 ng/mL
same,concentration at 16 day,"[1]; patient, day 16",10.8 ng/mL
same,concentration at 18 day,"[1]; patient, day 18",2.71 ng/mL
same,change of serum level while HP was stopped,[1],slight rise
CCOP(=S)(OCC)SC[S+]([O-])CC (stereo not shown) [phorate sulfoxide],IC50,[2],1500 µM
same,concentration at 1 day,"[1]; patient, day 1, after HP",1020 ng/mL
same,concentration at 4 h,[1]; [7],1440 ng/mL
same,concentration at 3 day,"[1]; patient, day 3",21.2 ng/mL
same,concentration at 5 day,"[1]; patient, day 5",10.9 ng/mL
same,concentration at 7 day,"[1]; patient, day 7 (HP suspended)",35.2 ng/mL
same,concentration at 10 day,"[1]; patient, day 10 (HP suspended)",80.2 ng/mL
same,concentration at 12 day,"[1]; patient, day 12",18.1 ng/mL
same,concentration at 14 day,"[1]; patient, day 14",17.6 ng/mL
same,concentration at 16 day,"[1]; patient, day 16",1.67 ng/mL
same,concentration at 18 day,"[1]; patient, day 18",0 ng/mL
same,change of serum level while HP was stopped,[1],significant rise
"CCOP(=S)(OCC)SCSCC [phorate, phosphorodithioic acid O, O-diethyl S-[(ethylthio)methyl] ester]",unmetabolized phorate in blood,[3],no longer detectable
same,IC50,[2],3100 µM
same,logP,[4],3.71
same,aging of AChE inhibited by phorate,[5],no significant aging
same,phorate in blood,[1]; after the first HP treatment and subsequent daily HP treatments,not detected
same,unmetabolized phorate in first blood analysis,"[1]; before HP, about 4 h after ingestion",did not detect
same,levels in the serum,"[1]; patient, 34th day",< 10 ng/mL
same,cholinesterase levels,[6]; 23rd day,"1,634 U/L"
same,cholinesterase levels,[6]; 27th day,3592 U/L
same,cholinesterase levels,[6]; 34th day,"4,821 U/L"
same,"serum cholinesterase, share of the normal value",[6]; after 30 days,about 50%
same,serum cholinesterase activity,[6]; day 1,268 u/L
same,serum cholinesterase activity,[6]; day 3,200 u/L
same,serum cholinesterase activity,[6]; day 7,200 u/L
same,serum cholinesterase activity,[6]; day 14,233 u/L
same,serum cholinesterase activity,[6]; day 28,3621 u/L
same,serum cholinesterase,"[6]; upon transfer into ICU, after first blood perfusion",268 U/L
CCOP(=O)(OCC)SCS(=O)(=O)CC [phoratoxon sulfone],IC50,[2],0.5 µM
same,times more toxic than phorate,[2],1000 times
same,concentration at 1 day,"[1]; patient, day 1, after HP",2110 ng/mL
same,concentration at 4 h,[1]; [7],3240 ng/mL
same,concentration at 3 day,"[1]; patient, day 3",221 ng/mL
same,concentration at 5 day,"[1]; patient, day 5",114 ng/mL
same,concentration at 7 day,"[1]; patient, day 7 (HP suspended)",65.2 ng/mL
same,concentration at 10 day,"[1]; patient, day 10 (HP suspended)",44.9 ng/mL
same,concentration at 12 day,"[1]; patient, day 12",33.3 ng/mL
same,concentration at 14 day,"[1]; patient, day 14",29.4 ng/mL
same,concentration at 16 day,"[1]; patient, day 16",20.9 ng/mL
same,concentration at 18 day,"[1]; patient, day 18",20.3 ng/mL
same,change of serum level while HP was stopped,[1],gradually fell
CCOP(=O)(OCC)SC[S+]([O-])CC (stereo not shown) [phoratoxon sulfoxide],IC50,[2],0.9 µM
same,times more toxic than phorate,[2],1000 times
same,serum concentration,"[1]; patient, day 1, after HP",2180 ng/mL
same,serum concentration,[1]; [7],4170 ng/mL
same,serum concentration,"[1]; patient, day 3",696 ng/mL
same,serum concentration,"[1]; patient, day 5",304 ng/mL
same,serum concentration,"[1]; patient, day 7 (HP suspended)",219 ng/mL
same,serum concentration,"[1]; patient, day 10 (HP suspended)",177 ng/mL
same,serum concentration,"[1]; patient, day 12",96.2 ng/mL
same,serum concentration,"[1]; patient, day 14",72.3 ng/mL
same,serum concentration,"[1]; patient, day 16",14.5 ng/mL
same,serum concentration,"[1]; patient, day 18",0.743 ng/mL
same,change of serum level while HP was stopped,[1],gradually fell
CCOP(=O)(OCC)SCSCC [phoratoxon],IC50,[2],3 µM
same,times more toxic than phorate,[2],1000 times
same,serum concentration,"[1]; patient, day 1, after HP",161 ng/mL
same,serum concentration,[1]; [7],195 ng/mL
same,serum concentration,"[1]; patient, day 3",27.7 ng/mL
same,serum concentration,"[1]; patient, day 5",3.33 ng/mL
same,serum concentration,"[1]; patient, day 7 (HP suspended)",2.10 ng/mL
same,serum concentration,"[1]; patient, day 10 (HP suspended)",1.01 ng/mL
same,serum concentration,"[1]; patient, day 12",0.433 ng/mL
same,serum concentration,"[1]; patient, day 14",0.415 ng/mL
same,serum concentration,"[1]; patient, day 16",0 ng/mL
same,serum concentration,"[1]; patient, day 18",0 ng/mL
same,change of serum level while HP was stopped,[1],gradually fell
